The source of these data is US9896487B2, “Amyloidosis-inhibiting polypeptides and their use” (UNIVERSITY OF WASHINGTON THROUGH ITS CENTER FOR …, priority 2013, dated 2018).

“Also recorded” adds a separate entry of the source. Like-named read-outs stand apart in the source and are kept apart here. [ ]: non-standard residue; d: D form.

For experiment [1], the system named is Aβ, IAPP and TTR amyloidosis / toxic oligomer. The experiment can be described thus: Inhibitory activity summary: inhibition of aggregation and/or binding of toxic oligomer. The class given is biochemical. The settings on record: for inhibition of aggregation (FIG. 6): Aβ, IAPP, TTR panels; for inhibitor quality compared with ldas90: FIG. 6 / FIG. 7. On the procedure:
In addition, FIG. 5 contains ‘control’ designs aimed at reverse engineering the α1 design, which is presented in more detail in Example 3. […] These designs are both linear and cyclic peptides designed to be hairpins.
The “control” designs were tested as general inhibitors against the Amyloid β 1-42 peptide (Aβ) (panel A), the islet amylin polypeptide (IAPP, or amylin, which is implicated in type 2 diabetes) (panel B), and transthyretin (TTR) (panel C) amyloidosis (FIG. 6). […] As described in Example 1, a Thioflavin T (ThT) fluorescence assay was used to monitor Aβ and IAPP aggregation. A Congo Red dye-binding assay was used to monitor TTR fibrillization. For inhibition against Aβ, peptides were co-incubated at 4-fold excess of Aβ at RT in neutral pH buffer containing ThT. […] For inhibition against IAPP, peptides were co-incubated at 8-fold excess of IAPP at 37° C. in neutral pH buffer containing 20 μM ThT. For inhibition against TTR, peptides were co-incubated at 10-fold excess of monomeric TTR.
The data in FIG. 6 were normalized to ThT fluorescence of the negative (uninhibited) control (black squares). Inhibition traces are ordered vertically according to sequence identity to α1 (see Table 1). Sigmoidal fits to data are included. Controls are identical throughout a single panel, and traces for inhibition samples are colored while the uninhibited aggregation profiles are in black.

The next experiment has as its system toxic oligomer. Kind of experiment: Binding of toxic oligomer by peptide immobilized to agarose beads (Examples 2 and 3). Here is the method: Peptide designs were immobilized to the Pierce Amino Link resin following the manufacturer's instructions. Peptides were immobilized in a volume of 200 μL of coupling buffer (100 mM sodium phosphate, 150 mM sodium chloride, pH 7.2) and 2 μL cyanoborohydride solution (5 M sodium cyanoborohydride in 1 M NaOH) at a concentration of 358 μM overnight at 4° C. Any residual active sites were blocked with 400 μL quenching buffer (1 M tris hydrochloride, pH 7.4) and 4 μL cyanoborohydride solution for 4 hours at 25° C. Binding experiments were performed from 200 μL amyloid solution (5 μM Aβ or 20 μM TTR (monomer) diluted to the desired concentration in coupling buffer), which was allowed to bind to the peptide-bound agarose beads for 2 h at 25° C. The solution was then collected by centrifugation (flow through, FT). The beads were resuspended in 300 μL coupling buffer, vortexed to obtain an uniform slurry, and the solution was again collected by centrifugation (wash 1, W1). The wash step was performed an additional five times (W2-W6). One final wash step was performed but after resuspending the resin, the solution was allowed to sit for 5 minutes before centrifugation (W7). The resin was next resuspended in 100 μL 2M guanidine hydrochloride, incubated for 5 minutes at room temperature, then collected as before. This was performed twice (E1-E2). The resin was washed again with 300 μL coupling buffer (W8) followed by two elution steps with 6M guanidine hydrochloride (E3-E4). One final wash step was performed with 300 μL coupling buffer (W9). All collected eluents were analyzed by applying triplicate 1 μL spots to nitrocellulose, and then performing standard dot blot analysis as described by Kayed et al. (9) with an anti-TTR (sc-13098, Santa Cruz Biotechnology, Santa Cruz, Calif.) or anti-Aβ (ab39377; Abeam Inc, Cambridge, Mass.) primary antibody diluted 1:1.000 in 5% or 10% nonfat milk, respectively.
Three α-sheet designs are addressed in Example 1, but many more have been evaluated using these same assays and structural methods. FIG. 5 contains a list of other designed α-sheet peptides, both linear and cyclic (specifically peptides #3-5 and #8-9), as well as other control, non-α-sheet designs (peptides #17-18, 20). In addition, FIG. 5 contains ‘control’ designs aimed at reverse engineering the α1 design, which is presented in more detail in Example 3. […] Random primary sequences of amino acids are active in the polypeptides of the invention; these same primary sequences are not active if the polypeptide is provided in an entirely L-amino acid peptide or if the L/D amino acids are randomly distributed within the polypeptide such that they are not alternating (i.e. if they are not polypeptides according to the invention). […] They also all inhibit aggregation and/or bind the toxic oligomer. Some of the polypeptides are insoluble and the solution assay can't be performed, but they do bind the targeted toxic oligomer when they are immobilized to agarose beads to promote solubilization. • Thus, this provides further evidence that the primary amino acid sequence per se is not determining structure and activity, the L/D patterning is. However, the sequence modulates the activity and solubility properties. • Both cyclic and linear designs with different sequences form α-sheet polypeptides, inhibit aggregation, and bind the toxic oligomer. […] (See peptides #1 and #7.) Note, however, that the charges can modulate the level of activity. • Next, consider all 14 designed peptides with the L/D turn template, they are all active. Some have issues with solubility but they all form α-sheet and are active amyloid inhibitors in solution and/or binding of the toxic oligomer. These designs are both linear and cyclic peptides designed to be hairpins. The sequence identity relative to ldas90 (peptide #1) ranges from 9-91% across these 14 designs with an average of 43%. […]

A further experiment concerns the target T1, transthyretin (TTR) (Homo sapiens, UniProt P02766).
T1 construct: purchased Lee Biosolutions, St. Louis Mo; 496-11
Kind of experiment: TTR fibrillization assay (Congo red binding). The class given is biochemical. Conditions: peptide without regard to TTR; prevents solution TTR assay. Here is the method:
Aliqouts of transthyretin (TTR) (496-11; Lee Biosolutions, St. Louis Mo.) were made from a 1 mg/mL solution 20 mM ammonium carbonate, pH 8. Aliquots were lyophilized and stored at −18° C. Prior to use, TTR was dissolved to 80 μM (monomer) in acetate buffer (50 mM potassium acetate, 100 mM potassium chloride pH 4.5) and sonicated for 10 minutes. The stock solution was centrifuged before use. Peptide designs were added to stock TTR to a final TTR concentration of 40 μM (monomer) in acetate buffer (pH 4.5) in 500 μL microcentrifuge tubes, which were incubated at 37° C. Periodically, samples were collected from the TTR:peptide mixture by briefly centrifuging, and then carefully pipetting the solution up and down prior to withdrawing a 10 μL sample and diluting it in 190 μL of 10 μM Congo red in an individual well of a 96-well assay plate. Each measurement was performed in triplicate. Absorbance measurements were taken at 477 and 540 nm. Relative Congo red binding was determined using the method of Klunk et al. using the relationship: rCb=(Abs540/25,295)−(Abs477/46,306) (40). All datapoints were normalized to the value recorded for TTR alone pH 4.5 at 48 hrs.
The “control” designs were tested as general inhibitors against the Amyloid β 1-42 peptide (Aβ) (panel A), the islet amylin polypeptide (IAPP, or amylin, which is implicated in type 2 diabetes) (panel B), and transthyretin (TTR) (panel C) amyloidosis (FIG. 6). […] As described in Example 1, a Thioflavin T (ThT) fluorescence assay was used to monitor Aβ and IAPP aggregation. A Congo Red dye-binding assay was used to monitor TTR fibrillization. For inhibition against Aβ, peptides were co-incubated at 4-fold excess of Aβ at RT in neutral pH buffer containing ThT. Note that the results for α1 differ somewhat from what are included in Example 1 because the assay conditions were altered slightly to slow the process down to favor oligomerization of Aβ (rather than fibril elongation) by lowering the temperature to 25° C. […] For inhibition against IAPP, peptides were co-incubated at 8-fold excess of IAPP at 37° C. in neutral pH buffer containing 20 μM ThT. For inhibition against TTR, peptides were co-incubated at 10-fold excess of monomeric TTR.

In the case of RGEmNlSwMNEYSGWtMnLkMGR [peptide #7], the “Inhibits Aggregation and/or binds oligomer?” value in experiment [1] is reported as “demonstrate activity”.
Consider “Ac-RGEMNLSWMNEYSGWTMNLKMGR-NH2 (not fully specified (residues 4, 6, 8, 16, 18, 20); printed as Ac-RGEMNLSWMNEYSGWTMNLKMGR-NH2) [peptide #20, all L-amino acid version of ldas90]”, for which the figures for the “Inhibits Aggregation and/or binds oligomer?” value in experiment [1] and in experiment [1] (listed as llas90) were “no” and “inactive”, respectively.
For “Ac-AQQiEcItNVWDKEItMyFnVSE-NH2 (Ac-AQQ[dI]E[dC]L[dT]NVWDKEL[dT]M[dY]F[dN]VSE-NH2; not fully specified) [peptide #11]”, in experiment [1], the “Inhibits Aggregation and/or binds oligomer?” value is reported as “yes” and the “inhibition of aggregation (FIG. 6)” value is recorded as “weak”. Further, the “Inhibits Aggregation and/or binds oligomer?” value in experiment [1] (listed as Control 3) is on record as “active”. The “binds toxic oligomer when immobilized” value in the experiment with toxic oligomer is reported as “do bind toxic oligomer”. The “Congo red binding by the peptide itself” value in the experiment with transthyretin (TTR) is reported as “bind Congo Red”.
Take “Ac-MNWESkGEwIRMRYGtmLSNGnM-NH2 (Ac-MNWES[dK]GE[dW]LRMRYG[dT][dM]LSNG[dN]M-NH2; SMILES CSCC[C@H](NC(=O)[C@@H](CC(N)=O)NC(=O)CNC(=O)[C@H](CC(N)=O)NC(=O)[C@H](CO)NC(=O)[C@H](CC(C)C)NC(=O)[C@@H](CCSC)NC(=O)[C@H](NC(=O)CNC(=O)[C@H](Cc1ccc(O)cc1)NC(=O)[C@H](CCCNC(=N)N)NC(=O)[C@H](CCSC)NC(=O)[C@H](CCCNC(=N)N)NC(=O)[C@H](CC(C)C)NC(=O)[C@@H](Cc1c[nH]c2ccccc12)NC(=O)[C@H](CCC(=O)O)NC(=O)CNC(=O)[C@@H](CCCCN)NC(=O)[C@H](CO)NC(=O)[C@H](CCC(=O)O)NC(=O)[C@H](Cc1c[nH]c2ccccc12)NC(=O)[C@H](CC(N)=O)NC(=O)[C@H](CCSC)NC(C)=O)[C@H](C)O)C(N)=O) [peptide #19]”: the entries for the “Inhibits Aggregation and/or binds oligomer?” value in experiment [1] and in experiment [1] (listed as Control2) were “no” and “inactive”, respectively. In addition, in the experiment on toxic oligomer, the “binds toxic oligomer when immobilized” value is on record as “does not”. In addition, the “Congo red binding by the peptide itself” value with transthyretin (TTR) is recorded as “bind Congo Red”.
Regarding “Ac-WRPwAiDgMNTBKQRkAsVyLQP-NH2 [peptide #13]”, the “Inhibits Aggregation and/or binds oligomer?” value is recorded as “yes” in experiment [1] and “active” in experiment [1] (listed as Control 4). Also, the “binds toxic oligomer when immobilized” value with toxic oligomer is “do bind toxic oligomer”. Moreover, the “Congo red binding by the peptide itself” value in the experiment with transthyretin (TTR) was “bind Congo Red”.
Turning to “Ac-RGNwNeSkMNEYSGWmLmLtMGR-NH2 (Ac-RGN[dW]N[dE]S[dK]MNEYSGW[dM]L[dM]L[dT]MGR-NH2; SMILES CSCC[C@H](NC(=O)[C@@H](CCCCN)NC(=O)[C@H](CO)NC(=O)[C@@H](CCC(=O)O)NC(=O)[C@H](CC(N)=O)NC(=O)[C@@H](Cc1c[nH]c2ccccc12)NC(=O)[C@H](CC(N)=O)NC(=O)CNC(=O)[C@H](CCCNC(=N)N)NC(C)=O)C(=O)N[C@@H](CC(N)=O)C(=O)N[C@@H](CCC(=O)O)C(=O)N[C@@H](Cc1ccc(O)cc1)C(=O)N[C@@H](CO)C(=O)NCC(=O)N[C@@H](Cc1c[nH]c2ccccc12)C(=O)N[C@H](CCSC)C(=O)N[C@@H](CC(C)C)C(=O)N[C@H](CCSC)C(=O)N[C@@H](CC(C)C)C(=O)N[C@@H](C(=O)N[C@@H](CCSC)C(=O)NCC(=O)N[C@@H](CCCNC(=N)N)C(N)=O)[C@H](C)O) [peptide #6]”, in experiment [1], the “Inhibits Aggregation and/or binds oligomer?” value is listed as “yes”, the “inhibition of aggregation (FIG. 6)” value is “good inhibitor” and the “inhibitor quality compared with ldas90” value is listed as “as good as ldas90 (peptide #1) with capped ends; also recorded: better than ldas90 with charged ends (peptide #7)”. Further, in experiment [1] (listed as Control5), the “inhibitor quality compared with ldas90” value was “as active” and the “Inhibits Aggregation and/or binds oligomer?” value is “active”. The “binds toxic oligomer when immobilized” value with toxic oligomer is “binds the toxic oligomer”.
On to “Ac-RGEaWmYiKNNLSETmMsNmWGR-NH2 [peptide #12]”, for which the “Inhibits Aggregation and/or binds oligomer?” value in experiment [1] is reported as “yes”; in experiment [1] (listed as Control6), “active”. The “inhibition of aggregation (FIG. 6)” value in experiment [1] is “inhibits aggregation”. Moreover, the “binds toxic oligomer when immobilized” value in the experiment with toxic oligomer (listed as Control 6) is “do bind toxic oligomer”; in the experiment on toxic oligomer (listed as Control6) it was “binds the toxic oligomer”. Further, the “Congo red binding by the peptide itself” value at transthyretin (TTR) was “bind Congo Red”.
